For one data set, the system named is MHV-nLuc. Briefly: microbe, parasite or virus in culture. The note with it: Murine coronavirus, read-out: MHV-nLuc replication IC50. The format is cell-based, mouse hepatitis virus (MHV).
A further data set deals with SARS-CoV-2-nLuc. The data set is classed as cell-based.
The test system of the next data set is SHC014-CoV-nLuc. The format is cell-based, bat.
The subject of a further data set is WIV1-CoV-nLuc. The format is cell-based, bat.
Data set [1] relates to SARS-CoV-2 spike protein uptake, HEK293T-ACE2 cells. The format is cell-based.
Data set [2] has as its system SARS-CoV-2 spike protein uptake, Caco-2 cells. The format is cell-based.
In data set [3] the test system is SARS-CoV-2 spike protein uptake, Calu-3 cells. The data set is classed as cell-based.
Another data set relates to kinases. The note with it: cited from earlier work.
Data set [4] has as its system SARS-CoV-2. Particulars: cited from earlier work.
The test system of data set [5] is SARS-CoV-2. Particulars: cited from earlier work. This is another data set of the same source.
The subject of the next data set is Vero cells. The note with it: cited from earlier work.
In the next data set the test system is A549-ACE2 cells. Particulars: cited from earlier work.

These results are taken from PMC9236220 (ACS Chemical Biology, 2022).

Molecules are shown by their SMILES. Like-named read-outs stand apart in the source and are kept apart here.

On to `CCC(=O)Nc1cc(Nc2cc(NC3CC3)n3ncc(C#N)c3n2)ccc1C` [SGC-CK2-1], for which, in the data set on MHV-nLuc, the IC50 (as a rule, the point on the concentration scale where inhibition reaches its midpoint) was found to be 210 nM. In the data set with SARS-CoV-2-nLuc, the “inhibition of SARS-CoV-2-nLuc replication” value is on record as “inhibition of viral replication was observed”. The “effect on SHC014-CoV replication” value in the data set with SHC014-CoV-nLuc is recorded as “dose-dependent decreases in viral replication”. Also, the “effect on WIV1-CoV replication” value in the data set on WIV1-CoV-nLuc is “dose-dependent decreases in viral replication”. The “decrease in spike protein uptake” value in data set [1] was 70–80%; in data set [2], greater than 75%; in data set [3], greater than 75%. For the same compound, in the data set on kinases, the “kinases inhibited at 1 μM” value is recorded as 3 kinases.
Take `O=C(O)c1ccc2c(c1)nc(Nc1cccc(Cl)c1)c1ccncc12` [silmitasertib]: the IC50 in the data set with MHV-nLuc is 630 nM; in the data set with SARS-CoV-2 [4] (read-out: antiviral activity IC50, SARS-CoV-2 in Vero cells) it was 2500 nM; in the data set on SARS-CoV-2 [5] (read-out: inhibition of SARS-CoV-2 infection IC50, A549-ACE2 cells), greater than 10000 nM. Besides, in the data set on DBT cells, the “effect on cell viability of DBT cells” value is given as “no effect on cell viability”. For the same compound, the “antiviral activity pIC50, SARS-CoV-2 in Vero cells” value in the data set with SARS-CoV-2 [4] was 5.6. Moreover, the “inhibition of SARS-CoV-2 infection pIC50, A549-ACE2 cells” value in the data set with SARS-CoV-2 [5] is given as less than 5. Further, the cell toxicity entry in the data set on Vero cells and in the data set on A549-ACE2 cells was “cell toxicity at micromolar doses” throughout.
For the compound `CC(=O)Nc1ccc2ccn(-c3cc(NC4CCC4)n4ncc(C#N)c4n3)c2c1` [Compound 17], the IC50 in the data set with MHV-nLuc was less than 1000 nM.
